How the values were obtained:
[1] = in words, prior art; cited from earlier work
[2] = test system: acetic acid induced writhing in mice; test: Acetic acid mouse writhing test (analgesic effect); type: in vivo, male CD-1 mice; settings: for ED50: Mus musculus, sc, subcutaneous, mice, acetic acid i.p. 15 minutes post drug, writhes in 20 minute interval; for ED50/AD50: ratio of mouse writhing ED50 to rat tail flick AD50
Protocol: The analgesic effects of test compounds were determined in mice by use of the acetic acid writhing test described by B. J. R. Whittle, Brit. J. Pharmacol., 22: 296 (1964). In this test at least three groups of five male CD-1 mice each were given subcutaneous doses of the test drug dissolved in either distilled water or distilled water acidified with HCl depending on the solubility of the compound. In all cases, 0.4 milliliter of a 0.75% V/V acetic acid in distilled water solution was administered intraperitoneally 15 minutes post drug. The number of writhes in a 20 minute interval were determined and compared with the number of writhes in control groups which had received only acetic acid.
Percent inhibition of writhing was calculated as: [formula]
The ED50 dose, i.e., the dose required to reduce the number of writhes by 50%, was determined graphically from a plot of % inhibition as a probit versus log dose. Confidence limits of 95% were calculated on the basis of those results falling in the range 16-84% inhibition. See Litchfield, J. T. and Wilcoxon, F., J. Pharmacol. Exp. Ther., 96, 99-113, (1949).

[3] = test system: morphine effect in rat tail flick; test: Narcotic antagonist activity (modified rat tail flick test, antagonism of morphine); type: in vivo, male albino Wistar rats; settings: for ED50: Rattus norvegicus, ip, 20 min, test drug intraperitoneally, rats, ED80 dose of morphine s.c. ten minutes later, retested 20 minutes after morphine, read-out: AD50 (the source's name)
Protocol: The narcotic anatagonist effects of test compounds were determined by a modification of the rat tail flick procedure of Harris and Pierson (J. Pharmacol. Exp. Ther. 143: 141 [1964]).
Male albino Wistar rats (100-120 g) were used for this study. A rat's tail is so placed so as to cover a photocell. Heat is applied by a lamp in a reflector with a timer being connected to the lamp and photocell so that the timer goes on when the light is turned on and is turned off when the photocell is uncovered. A rheostat, incorporated into a heating lamp, is used to adjust the intensity of the light fallng on the tail of the rat such that the rat's control reaction time is from two to four seconds. Animals with a control reaction time outside this range are rejected. The rheostat adjustment is made only if a significant proportion (more than 1 out of every 10 rats) of the reaction times are outside the range of 1.8 to 5.8 seconds. Groups of five rats were used each time, and two control times were determined at least 30 minutes apart. The test drug was given intraperitoneally and this was followed ten minutes later by an ED80 dose of morphine subcutaneously. The animals were retested at 20 minutes after the morphine injection. Control animals were given morphine only.
The data were calculated as follows: [formula]
The data were plotted on log-probit paper and AD50 values, i.e., the dose required to inhibit the morphine effect by 50% within 95% confidence limits, were determined by the method of Litchfield and Wilcoxon.

SMILES | ED50 [2] [mg/kg] | ED50/AD50 [2] | ED50 [3] [mg/kg] | analgesic / narcotic antagonist activity [1] | also measured
O=C1CCC2(O)C3Cc4ccc(O)cc4C2(CCN3CC2CC2)C1 (stereo not shown) |  |  |  |  | duration of action [1]: very long acting; potency relative to A, cyclazocine or naloxone [1]: more potent than A (above), cyclazocine or naloxone
COc1ccc2c(c1)[C@]13CCN(CC4CC4)[C@H](C2)[C@]1(O)CCC(=O)C3.Cl [179-A-19, 17-cyclopropylmethyl-14-hydroxy-3-methoxymorphinan-6-one hydrochloride] | 0.3 | 0.6 | 0.5 |  | more potent as an analgesic, by a factor ([2]; 179-A-19 versus 179-A-20): greater than 7
Cl.O=C1CC[C@@]2(O)[C@H]3Cc4ccc(O)cc4[C@@]2(CCN3CC2CC2)C1 [179-A-20, 17-cyclopropylmethyl-3,14-dihydroxymorphinan-6-one hydrochloride] | 2.2 | 26.83 | 0.082 |  | more potent in terms of narcotic antagonist activity, by a factor ([3]; 179-A-20 versus 179-A-19): about 6
Oc1ccc2c(c1)C13CCCCC1(O)C(C2)N(CC1CC1)CC3 (stereo not shown) [A] |  |  |  | essentially a narcotic antagonist | 
Oc1ccc2c(c1)C13CCCCC1(O)C(C2)N(CC1CCC1)CC3 (stereo not shown) [B] |  |  |  | both analgesic and narcotic antagonist activity | 
C[C@H]1[C@H]2Cc3ccc(O)cc3[C@]1(C)CCN2CC1CC1 [cyclazocine] |  |  |  | mixed analgesic/narcotic antagonist activity | 

— US4260617A, “17-Cyclopropylmethyl-14-hydroxy-3-methoxymorphinan-6-one and method of treating pain with it” (SISA, Incorporated, priority 1979, dated 1981)
